Data: PubChem BioAssay AID651581 (Sanford-Burnham Center for Chemical Genomics, 2012)
Active and inactive are the calls of the source. No rule for the calls is given here.

Legend:
[1] = target: Endothelial PAS domain-containing protein 1 (Homo sapiens) (UniProt Q99814); experiment: HIF-2a and HIF-1a reporter inhibition panel, dose response, selectivity assay for HIF-2a inhibitor project, cell-based, luminescence (AID 651581)
[2] = target: Hypoxia-inducible factor 1-alpha (Homo sapiens) (UniProt Q16665); experiment: as above; details: HIF-1a
Hypoxia-inducible factor 1-alpha (Homo sapiens), sequence (Q16665 whole entry, looked up): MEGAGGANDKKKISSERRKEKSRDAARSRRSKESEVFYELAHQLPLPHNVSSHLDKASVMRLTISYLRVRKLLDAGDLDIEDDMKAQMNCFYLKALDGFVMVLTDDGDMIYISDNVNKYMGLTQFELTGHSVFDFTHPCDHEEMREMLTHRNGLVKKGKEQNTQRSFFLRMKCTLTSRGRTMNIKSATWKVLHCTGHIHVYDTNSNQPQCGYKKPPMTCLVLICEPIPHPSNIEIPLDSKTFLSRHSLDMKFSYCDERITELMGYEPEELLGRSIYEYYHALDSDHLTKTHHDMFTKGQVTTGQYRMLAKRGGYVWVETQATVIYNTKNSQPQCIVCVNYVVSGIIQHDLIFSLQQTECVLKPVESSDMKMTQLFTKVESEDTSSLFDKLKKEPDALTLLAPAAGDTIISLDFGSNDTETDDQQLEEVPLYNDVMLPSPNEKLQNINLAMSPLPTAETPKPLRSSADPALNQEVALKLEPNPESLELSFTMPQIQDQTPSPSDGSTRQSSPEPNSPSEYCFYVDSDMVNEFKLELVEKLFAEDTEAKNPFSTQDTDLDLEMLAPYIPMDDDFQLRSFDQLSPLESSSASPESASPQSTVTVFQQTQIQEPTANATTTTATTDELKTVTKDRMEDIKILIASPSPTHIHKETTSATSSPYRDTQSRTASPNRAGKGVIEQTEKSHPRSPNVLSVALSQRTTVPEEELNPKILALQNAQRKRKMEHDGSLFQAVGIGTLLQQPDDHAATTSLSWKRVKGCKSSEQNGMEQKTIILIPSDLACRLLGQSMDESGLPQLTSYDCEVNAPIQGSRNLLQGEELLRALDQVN

Structure (SMILES)	IC50 ([1]; HIF-2a PANC, mean of runs)	IC50 ([1]; HIF-2a PANC, run 1) [µM]	IC50 ([1]; HIF-2a PANC, run 2) [µM]	IC50 ([1]; HIF-2a, mean of runs)	IC50 ([1]; HIF-2a, run 1) [µM]	IC50 ([1]; HIF-2a, run 2) [µM]	IC50 ([2]; mean of runs)	IC50 ([2]; run 1) [µM]	IC50 ([2]; run 2) [µM]
O=C1C=C(c2ccccc2)C(=O)N1Nc1ccccc1	> 99 µM (inactive)	> 99	> 99	inactive	11.2	10.6	82.8 µM	76	89.5
Cc1c(CCC(=O)N[C@@H](CC(C)C)C(=O)O)c(=O)oc2cc3oc4c(c3cc12)CCCC4	2.77 µM	2.58	2.96	1.61 µM	1.61	1.61	inactive	2.65	4.05
CCOc1ccc(OCc2cccc(C(=O)N3CCOCC3)c2)cc1	> 99 µM (inactive)	> 99	> 99		7.59	< 30		> 99	> 99
FC(F)(F)c1cnc(NNC(=S)Nc2ccccc2)c(Cl)c1	2.3 µM	1.23	3.36	7.78 µM	8.41	7.15	28.9 µM	13.9	44
COc1cc(/C=N/O)ccc1OCc1ccc(C(=O)O)cc1	> 99 µM (inactive)	> 99	> 99	4.29 µM	5.58	3		> 99	> 99
Cc1nc2cc(-c3ccccc3)nn2c(C)c1CCC(=O)NC(C)c1ccc2c(c1)OCCO2 (configuration not stated)	2.4 µM	2.9	1.91	3.26 µM	3.59	2.92	24.3 µM	3.84	44.7
COc1ccc(CNC(=O)c2nc(S(=O)(=O)Cc3ccccc3)ncc2Cl)cc1	inactive	29.8	31.1	8.83 µM	8.77	8.9	27 µM	28.1	26
O=C(c1ccccc1)c1cc(Cl)ccc1N1C(=O)C=CC1=O		25.3	> 99	6.91 µM	7.05	6.78	58.4 µM	55	61.7
O=C(O)c1cc(N/N=C/c2ccc3c(c2)OCCO3)ccc1Cl	> 99 µM (inactive)	> 99	> 99		< 30	5.03		45.8	> 99
Cc1c(CCC(=O)N2CCC[C@H]2C(=O)O)c(=O)oc2c(C)c3oc4c(c3cc12)CCCC4	1.72 µM	1.8	1.64	4.13 µM	4.63	3.63	44.7 µM	72.4	17
Cc1nc(SCc2ccc(C(=O)O)cc2)nc2c1CCCC2	inactive	20.8	23.6	4.53 µM	4.31	4.75	inactive	12.3	7.67
C(=NNc1ccc2ccccc2n1)c1ccccn1	inactive	44.8	51.1	5.57 µM	5.49	5.65	23.5 µM	22	24.9
CC(=O)/C=C1/C(=O)Nc2ccccc21	> 99 µM (inactive)	> 99	> 99	inactive	13.9	14.2	inactive	32.6	26.2
O=c1[nH]c2ccc(Br)cc2c(=O)o1	47.5 µM	36.4	58.6	inactive	19.3	20		> 99	20
CCOC(=O)Cn1cc(/C=C/[N+](=O)[O-])c2ccccc21	> 99 µM (inactive)	> 99	> 99	inactive	13.5	13.2	inactive	17.7	25
Cc1nc2cc(-c3ccccc3)nn2c(C)c1CCC(=O)N1CCC2(CC1)OCCO2	2.49 µM	2.63	2.35	0.832 µM	0.742	0.921	53 µM	53.9	52
CC(C)(C)c1ccc(-c2noc(CCC(=O)Nc3cccnc3)n2)cc1	< 0.3 µM	< 1	< 0.3	< 1 µM	< 1	< 1	64.2 µM	78.9	49.5
Cc1csc(NC(=O)c2cn3ccccc3n2)n1	17.5 µM	20.3	14.8	7.98 µM	7.58	8.38	inactive	11.9	12.5
O=C(O)c1cccc(N/N=C/c2cccs2)c1		> 99	45.8	5.74 µM	5.56	5.91		> 99	> 99
Nc1ccc(-c2ncc(-c3ccccc3)o2)cc1	0.247 µM	0.202	0.292	< 0.3 µM	< 0.3	< 1	26.7 µM	52.5	0.851
Cc1nnnn1/C(=C\c1ccccc1)C(=O)OCC(=O)Nc1ccc(Cl)cc1F	19.9 µM	19.3	20.6	8.16 µM	8.44	7.88	inactive	16	21.2
Cc1ccc(S(=O)(=O)Nc2cccc3cccnc23)cc1	> 99 µM (inactive)	> 99	> 99	1.12 µM	1.15	1.09		> 99	> 99
Cc1nc2cc(-c3ccccc3)nn2c(C)c1CCC(=O)NCc1ccco1	4.77 µM	6.92	2.62	1.81 µM	1.52	2.1		> 99	> 99
O=C(O)c1ccc2nc(-c3ccccc3)sc2c1	11.4 µM	12.7	10.2		< 30	> 99	inactive	26.6	22.9
CCOC(=O)Cc1csc(NC(=S)NC(=O)c2ccc([N+](=O)[O-])cc2)n1	inactive	35.8	34.5	5.93 µM	5.83	6.03	51 µM	55.3	46.8
O=C(Nc1ccc(F)cc1)c1nc(S(=O)(=O)Cc2ccccc2)ncc1Cl	inactive	26.2	22	7.59 µM	7.71	7.47	inactive	14.6	16.7
